# From patent US20230278972A1, “SUBSTITUTED HALOALKYL SULFONANILIDE HERBICIDES” (FMC Corporation, priority 2020, published 2023)
# Tests used:
# Format in all cases: in vivo
# soybean (Glycine max) [1] = experiment: Test A1 preemergence, soybean
# Outline: (§1)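 Pre: seeds in loam/sand blend, directed soil spray. Post: potted plants, same soil, 2–10 cm, 1–2 leaf stage. Chemicals in non-phytotoxic solvent + surfactant for both.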
# [2] = system: Ryegrass, Italian (Italian ryegrass, Lolium multiflorum); experiment: Test A1 preemergence, Ryegrass, Italian
# Outline: as §1
# [3] = system: wheat (Triticum aestivum); experiment: Test A1 postemergence, wheat; settings: Postemergence
# Outline: (§2)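 Herbicidal response was scored on plants treated either preemergence, by directed spray onto soil of a loam–sand blend after sowing, or postemergence on potted plants at the one- to two-leaf stage, 2–10 cm high. Test chemicals were carried in a non-phytotoxic solvent mix with surfactant.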
# [4] = system: ragweed (common ragweed, Ambrosia artemisiifolia); experiment: Test A1 preemergence, ragweed
# Outline: as §1
# [5] = system: wheat (Triticum aestivum); experiment: Test A1 preemergence, wheat
# Outline: as §1
# kochia (Bassia scoparia) [6] = experiment: Test A1 preemergence, kochia
# Outline: as §1
# [7] = system: blackgrass (Alopecurus myosuroides); experiment: Test A1 preemergence, blackgrass
# Outline: as §1
# [8] = system: galium (catchweed bedstraw, Galium aparine); experiment: Test A1 postemergence, galium; settings: Postemergence
# Outline: as §2
# [9] = system: Oat, Wild (wild oat, Avena fatua); experiment: Test A1 preemergence, Oat, Wild
# Outline: as §1
# [10] = system: goosegrass (Eleusine indica); experiment: Test A1 preemergence, goosegrass
# Outline: as §1
# [11] = system: Foxtail, Giant (giant foxtail, Setaria faberi); experiment: Test A1 postemergence, Foxtail, Giant; settings: Postemergence
# Outline: as §2
# corn (Zea mays) [12] = experiment: Test A1 preemergence, corn
# Outline: (§3)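 Both timings started from seed in a loam-sand blend. Preemergence pots got a directed soil application immediately; postemergence pots were sprayed when seedlings had one or two leaves and stood 2–10 cm. Each compound was prepared in a non-phytotoxic solvent plus surfactant.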
# [13] = system: Foxtail, Giant (giant foxtail, Setaria faberi); experiment: Test A1 preemergence, Foxtail, Giant
# Outline: as §1
# kochia (Bassia scoparia) [14] = experiment: Test A1 postemergence, kochia; settings: Postemergence
# Outline: as §2
# [15] = system: Oat, Wild (wild oat, Avena fatua); experiment: Test A1 postemergence, Oat, Wild; settings: Postemergence
# Outline: as §3
# rice (Oryza sativa) = experiment: Test B1 flooded paddy test, rice; settings: 250 g ai/ha, Flood, applied to paddy water, 2-leaf stage, visually evaluated after 10 to 14 days
# Text: (§4) A dash (-) response means no test result.
# corn (Zea mays) [16] = experiment: Test A1 postemergence, corn; settings: Postemergence
# Outline: as §1
# [17] = system: blackgrass (Alopecurus myosuroides); experiment: Test A1 postemergence, blackgrass; settings: Postemergence, 0 to 100 scale (0 no effect, 100 complete control)
# Outline: as §2
# [18] = system: Pigweed, Palmer (palmer amaranth, palmer pigweed, Amaranthus palmeri); experiment: Test A1 postemergence, Pigweed, Palmer; settings: Postemergence
# Outline: as §3
# [19] = system: horseweed (Erigeron canadensis); experiment: Test A1 postemergence, horseweed; settings: Postemergence
# Outline: as §2
# [20] = system: Ryegrass, Italian (Italian ryegrass, Lolium multiflorum); experiment: Test A1 postemergence, Ryegrass, Italian; settings: Postemergence
# Outline: as §2
# soybean (Glycine max) [21] = experiment: Test A1 postemergence, soybean; settings: Postemergence
# Outline: as §2
# [22] = system: barnyardgrass (Echinochloa crus-galli); experiment: Test B1 flooded paddy test, barnyardgrass; settings: 250 g ai/ha, Flood, applied to paddy water, 2-leaf stage, visually evaluated after 10 to 14 days
# Text: as §4
# [23] = system: ragweed (common ragweed, Ambrosia artemisiifolia); experiment: Test A1 postemergence, ragweed; settings: Postemergence
# Outline: as §3
# [24] = system: Pigweed, Palmer (palmer amaranth, palmer pigweed, Amaranthus palmeri); experiment: Test A1 preemergence, Pigweed, Palmer
# Outline: as §1
# [25] = system: ducksalad (Heteranthera limosa); experiment: Test B1 flooded paddy test, ducksalad; settings: 250 g ai/ha, Flood, applied to paddy water, 2-leaf stage, visually evaluated after 10 to 14 days
# Text: as §4
# [26] = system: goosegrass (Eleusine indica); experiment: Test A1 postemergence, goosegrass; settings: Postemergence
# Outline: as §2
# [27] = 31 g ai/ha, 0 to 100 scale (0 no effect, 100 complete control)
# [28] = 125 g ai/ha, 0 to 100 scale, 0 no effect, 100 complete control
# [29] = 31 g ai/ha, 0 to 100 scale (0 no effect, 100 complete control), 10 days
compound,measurement,setting,value
Cc1cc(C)c(C2=NOC3CCCCCC23)cc1NS(=O)(=O)C(F)(F)F (stereo not drawn) [Compound 292],"Plant response rating, Soybean",soybean (Glycine max) [1]; [27],0
same,"Plant response rating, Soybean",soybean (Glycine max) [1]; [28],40
same,"Plant response rating, Ryegrass, Italian",[2]; [27],60
same,"Plant response rating, Ryegrass, Italian",[2]; [28],100
same,"Plant response rating, Wheat",[3]; [29],0
same,"Plant response rating, Wheat","[3]; 125 g ai/ha, 0 to 100 scale",70
same,"Plant response rating, Ragweed",[4]; [27],10
same,"Plant response rating, Ragweed",[4]; [28],80
same,"Plant response rating, Wheat",[5]; [27],20
same,"Plant response rating, Wheat",[5]; [28],90
same,"Plant response rating, Kochia",kochia (Bassia scoparia) [6]; [27],30
same,"Plant response rating, Kochia",kochia (Bassia scoparia) [6]; [28],80
same,"Plant response rating, Blackgrass",[7]; [27],0
same,"Plant response rating, Blackgrass",[7]; [28],30
same,"Plant response rating, Galium",[8]; [29],80
same,"Plant response rating, Galium","[8]; 125 g ai/ha, 0 to 100 scale",80
same,"Plant response rating, Oat, Wild",[9]; [27],0
same,"Plant response rating, Oat, Wild",[9]; [28],50
same,"Plant response rating, Goosegrass",[10]; [27],80
same,"Plant response rating, Goosegrass",[10]; [28],100
same,"Plant response rating, Foxtail, Giant",[11]; [29],0
same,"Plant response rating, Foxtail, Giant","[11]; 125 g ai/ha, 0 to 100 scale",30
same,"Plant response rating, Corn",corn (Zea mays) [12]; [27],0
same,"Plant response rating, Corn",corn (Zea mays) [12]; [28],40
same,"Plant response rating, Foxtail, Giant",[13]; [27],50
same,"Plant response rating, Foxtail, Giant",[13]; [28],100
same,"Plant response rating, Kochia",kochia (Bassia scoparia) [14]; [29],30
same,"Plant response rating, Kochia","kochia (Bassia scoparia) [14]; 125 g ai/ha, 0 to 100 scale",50
same,"Plant response rating, Oat, Wild",[15]; [29],10
same,"Plant response rating, Oat, Wild","[15]; 125 g ai/ha, 0 to 100 scale",30
same,"Plant response rating, Rice (0 to 100 scale, 0 is no effect, 100 is complete control)",rice (Oryza sativa),0
same,"Plant response rating, Corn",corn (Zea mays) [16]; [29],0
same,"Plant response rating, Corn","corn (Zea mays) [16]; 125 g ai/ha, 0 to 100 scale",0
same,"Plant response rating, Blackgrass","[17]; 31 g ai/ha, 10 days",0
same,"Plant response rating, Blackgrass",[17]; 125 g ai/ha,0
same,"Plant response rating, Pigweed, Palmer",[18]; [29],0
same,"Plant response rating, Pigweed, Palmer","[18]; 125 g ai/ha, 0 to 100 scale",30
same,"Plant response rating, Horseweed",[19]; [29],0
same,"Plant response rating, Horseweed","[19]; 125 g ai/ha, 0 to 100 scale",30
same,"Plant response rating, Ryegrass, Italian",[20]; [29],0
same,"Plant response rating, Ryegrass, Italian","[20]; 125 g ai/ha, 0 to 100 scale",30
same,"Plant response rating, Soybean",soybean (Glycine max) [21]; [29],20
same,"Plant response rating, Soybean","soybean (Glycine max) [21]; 125 g ai/ha, 0 to 100 scale",80
same,"Plant response rating, Barnyardgrass (0 to 100 scale, 0 is no effect, 100 is complete control)",[22],0
same,"Plant response rating, Ragweed",[23]; [29],20
same,"Plant response rating, Ragweed","[23]; 125 g ai/ha, 0 to 100 scale",40
same,"Plant response rating, Pigweed, Palmer",[24]; [27],60
same,"Plant response rating, Pigweed, Palmer",[24]; [28],60
same,"Plant response rating, Ducksalad (0 to 100 scale, 0 is no effect, 100 is complete control)",[25],95
same,"Plant response rating, Goosegrass",[26]; [29],0
same,"Plant response rating, Goosegrass","[26]; 125 g ai/ha, 0 to 100 scale",80
Cc1cc(C)c(N(COC(=O)C(C)(C)C)S(=O)(=O)C(F)(F)F)cc1C(=O)N1CCC(c2ccccc2)CC1 [Compound 364],"Plant response rating, Soybean",soybean (Glycine max) [1]; [27],0
same,"Plant response rating, Soybean",soybean (Glycine max) [1]; [28],0
same,"Plant response rating, Ryegrass, Italian",[2]; [27],0
same,"Plant response rating, Ryegrass, Italian",[2]; [28],0
same,"Plant response rating, Wheat",[3]; [29],0
same,"Plant response rating, Wheat","[3]; 125 g ai/ha, 0 to 100 scale",0
same,"Plant response rating, Ragweed",[4]; [27],0
same,"Plant response rating, Ragweed",[4]; [28],0
same,"Plant response rating, Wheat",[5]; [27],0
same,"Plant response rating, Wheat",[5]; [28],0
same,"Plant response rating, Kochia",kochia (Bassia scoparia) [6]; [27],0
same,"Plant response rating, Kochia",kochia (Bassia scoparia) [6]; [28],0
same,"Plant response rating, Blackgrass",[7]; [27],0
same,"Plant response rating, Blackgrass",[7]; [28],0
same,"Plant response rating, Galium",[8]; [29],0
same,"Plant response rating, Galium","[8]; 125 g ai/ha, 0 to 100 scale",30
same,"Plant response rating, Oat, Wild",[9]; [27],0
same,"Plant response rating, Oat, Wild",[9]; [28],0
same,"Plant response rating, Goosegrass",[10]; [27],0
same,"Plant response rating, Goosegrass",[10]; [28],0
same,"Plant response rating, Foxtail, Giant",[11]; [29],0
same,"Plant response rating, Foxtail, Giant","[11]; 125 g ai/ha, 0 to 100 scale",20
same,"Plant response rating, Corn",corn (Zea mays) [12]; [27],0
same,"Plant response rating, Corn",corn (Zea mays) [12]; [28],0
same,"Plant response rating, Foxtail, Giant",[13]; [27],0
same,"Plant response rating, Foxtail, Giant",[13]; [28],0
same,"Plant response rating, Kochia",kochia (Bassia scoparia) [14]; [29],0
same,"Plant response rating, Kochia","kochia (Bassia scoparia) [14]; 125 g ai/ha, 0 to 100 scale",30
same,"Plant response rating, Oat, Wild",[15]; [29],0
same,"Plant response rating, Oat, Wild","[15]; 125 g ai/ha, 0 to 100 scale",0
same,"Plant response rating, Rice (0 to 100 scale, 0 is no effect, 100 is complete control)",rice (Oryza sativa),0
same,"Plant response rating, Corn",corn (Zea mays) [16]; [29],0
same,"Plant response rating, Corn","corn (Zea mays) [16]; 125 g ai/ha, 0 to 100 scale",0
same,"Plant response rating, Blackgrass","[17]; 31 g ai/ha, 10 days",0
same,"Plant response rating, Blackgrass",[17]; 125 g ai/ha,0
same,"Plant response rating, Pigweed, Palmer",[18]; [29],0
same,"Plant response rating, Pigweed, Palmer","[18]; 125 g ai/ha, 0 to 100 scale",0
same,"Plant response rating, Horseweed",[19]; [29],0
same,"Plant response rating, Horseweed","[19]; 125 g ai/ha, 0 to 100 scale",0
same,"Plant response rating, Ryegrass, Italian",[20]; [29],0
same,"Plant response rating, Ryegrass, Italian","[20]; 125 g ai/ha, 0 to 100 scale",0
same,"Plant response rating, Soybean",soybean (Glycine max) [21]; [29],0
same,"Plant response rating, Soybean","soybean (Glycine max) [21]; 125 g ai/ha, 0 to 100 scale",10
same,"Plant response rating, Barnyardgrass (0 to 100 scale, 0 is no effect, 100 is complete control)",[22],0
same,"Plant response rating, Ragweed",[23]; [29],0
same,"Plant response rating, Ragweed","[23]; 125 g ai/ha, 0 to 100 scale",0
same,"Plant response rating, Pigweed, Palmer",[24]; [27],0
same,"Plant response rating, Pigweed, Palmer",[24]; [28],0
same,"Plant response rating, Ducksalad (0 to 100 scale, 0 is no effect, 100 is complete control)",[25],0
same,"Plant response rating, Goosegrass",[26]; [29],0
same,"Plant response rating, Goosegrass","[26]; 125 g ai/ha, 0 to 100 scale",0
